Experimental data as given in publication PMC8041433 (Environmental Health Perspectives, 2021).
Where “and” joins values, the source holds several entries; their conditions need not be identical. Equal entries are not always repeated. Where two headings read alike, the source gives them in different places.

Key:
recombinant human AChE [1] = target: T1, recombinant human AChE (Homo sapiens, UniProt P22303); assay: biochemical
recombinant human AChE [2] = target: T1, recombinant human AChE; assay: biochemical; remark: listed apart in the source
AChE in SH-SY5Y cells = AChE in SH-SY5Y cells (Homo sapiens, UniProt P22303); assay: cell-based
[3] = target: AChE in SH-SY5Y spheroids (Homo sapiens, UniProt P22303); assay: cell-based
[4] = target: AChE in neural stem cells (Homo sapiens, UniProt P22303); assay: cell-based
[5] = target: AChE in neural stem cell spheroids (Homo sapiens, UniProt P22303); assay: cell-based
recombinant human AChE [6] = target: T1, recombinant human AChE; assay: biochemical; type: biochemical; conditions: for AC50: AC50 (uM)
recombinant human AChE [7] = target: T1, recombinant human AChE
recombinant human AChE [8] = target: T1, recombinant human AChE; assay: biochemical; remark: listed apart in the source
[9] = potency (IC50), SH-SY5Y cells monolayer
[10] = potency (IC50), SH-SY5Y spheroids (24 h)
[11] = potency (IC50), SH-SY5Y spheroids (48 h)
[12] = potency (IC50), Neural stem cell spheroid (24 h)
[13] = potency (IC50), Enzyme with microsomes
[14] = potency (IC50), Neural stem cell spheroid (48 h)
[15] = read-out: potency (IC50), SH-SY5Y spheroids (48 h)
For IR or R in this document: key: Reversible (R); Irreversible (IR); ND, not detected in enzyme-based AChE inhibition assay from current study.

Chain of AChE in neural stem cells (P22303 32-614): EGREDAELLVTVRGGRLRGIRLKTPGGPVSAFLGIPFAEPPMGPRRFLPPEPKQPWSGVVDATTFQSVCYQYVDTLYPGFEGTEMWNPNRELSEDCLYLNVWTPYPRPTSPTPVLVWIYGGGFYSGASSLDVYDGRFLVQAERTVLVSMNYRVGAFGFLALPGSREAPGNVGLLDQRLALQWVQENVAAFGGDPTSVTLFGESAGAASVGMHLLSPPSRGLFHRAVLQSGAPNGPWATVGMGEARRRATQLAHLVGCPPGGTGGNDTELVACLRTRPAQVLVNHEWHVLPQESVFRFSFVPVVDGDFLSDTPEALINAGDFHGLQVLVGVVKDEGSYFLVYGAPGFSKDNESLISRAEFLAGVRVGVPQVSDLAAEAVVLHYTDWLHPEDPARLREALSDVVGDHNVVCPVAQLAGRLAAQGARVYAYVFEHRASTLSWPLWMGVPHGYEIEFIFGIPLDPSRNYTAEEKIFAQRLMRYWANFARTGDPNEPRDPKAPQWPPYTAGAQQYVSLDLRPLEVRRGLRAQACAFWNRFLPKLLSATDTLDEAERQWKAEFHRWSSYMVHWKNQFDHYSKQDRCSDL
T1 sequence (P22303 32-614): as above
Chain of AChE in SH-SY5Y spheroids (P22303 32-614): as above
Chain of AChE in SH-SY5Y cells (P22303 32-614): as above
Chain of AChE in neural stem cell spheroids (P22303 32-614): as above

Row | SMILES | CC-v2 (curve classes) (recombinant human AChE [1]) | Efficacy (recombinant human AChE [1]) | IC50 (recombinant human AChE [1]; potency (IC50), Enzyme) | IC50 (recombinant human AChE [2]) | CC-v2 (curve classes) (AChE in SH-SY5Y cells) | IC50 (AChE in SH-SY5Y cells; IC50 (uM)) | IC50 (AChE in SH-SY5Y cells; [9]) | IC50 [3, 10] | IC50 [3, 11] | IC50 [4] | IC50 [5, 12] | IR or R (recombinant human AChE [6]) | AC50 (recombinant human AChE [6]) | CC-v2 (curve classes) (recombinant human AChE [7]) | Efficacy (recombinant human AChE [7]) | IC50 (recombinant human AChE [8]; [13]) | IC50 [5, 14] | IC50 (recombinant human AChE [1]; IC50 (uM)) | further results
1 | O=c1[nH]c2ccc([S+]([O-])CCN3CCC(Cc4ccc(F)cc4)CC3)cc2o1 (centres unmarked) [Besonprodil, reference compound] | -1.1 | -92.894 | 7.92 ± 0.91 µM | 16.4 ± 1.11 µM | -1.1 | 6.33 µM | 8.57 ± 1.17 µM | 4.75 ± 3.24 µM | 7.44 ± 1.68 µM | 15.8 ± 1.81 µM | 11.5 ± 3.7 µM | R | 14 µM (2×) and 9.93 µM (2×) and 15.7 µM (2×) and 7.03 µM | -2.1 | -73.433 | 15.8 ± 1.81 µM | – | – | potency (IC50), Neural stem cell spheroid (48 h) [5]: Inactive
2 | CNC(=O)Oc1cccc2c1OC(C)(C)C2 [Carbofuran] | -1.1 | – | 0.09 µM | 0.23 ± 0.03 µM | -1.1 | 0.0894 µM and 0.725 µM and 0.647 µM and 0.1 µM and 0.458 µM | 0.29 ± 0.05 µM | 0.64 ± 0.97 µM | 0.27 ± 0.05 µM | 2.19 ± 0.61 µM | 2.44 ± 0.61 µM | – | 993 nM (2×) and 1.11 µM (2×) and 885 nM and 125 nM and 314 nM and 157 nM | -1.1 | – | 0.22 ± 0.04 µM | 4.82 ± 0.66 µM | – | –
3 | CCOP(=S)(OCC)SCSc1ccc(Cl)cc1 [Carbophenothion] | -2.2 | -28.575 | – | – | – | 89.4 µM | – | 28.1 µM | 19.6 µM | 2.96 µM | 2.19 µM | – | 19.3 µM and 17.2 µM and 21.7 µM | 4 | -18.784 | 3.74 µM | 3.31 µM | 89.4 µM | AChE inhibition (result in words) (recombinant human AChE [1]): did not show effects; potency (IC50), Enzyme (recombinant human AChE [1]): Inactive; potency (IC50), Enzyme-based assay with heat-inactivated microsomes (recombinant human AChE [2]): Inactive; potency (IC50), SH-SY5Y cells monolayer (AChE in SH-SY5Y cells): Inactive
4 | CCCCN(CCCC)SN(C)C(=O)Oc1cccc2c1OC(C)(C)C2 [Carbosulfan] | -1.1 | – | 1.67 µM | 1.36 ± 0.19 µM | -1.1 | 0.159 µM and 0.809 µM and 0.126 µM and 1.14 µM and 0.224 µM and 0.573 µM | 3.23 µM | 0.46 µM | 0.68 µM | 10.9 µM | 5.25 µM | R | 993 nM (3×) and 1.11 µM and 885 nM | -1.1 | – | 0.44 µM | 8.89 µM | – | IC50 (recombinant human AChE [8]; IC50 (uM)): 3.56 µM and 0.573 µM
5 | CCOP(=S)(OCC)OC(Cl)C(Cl)(Cl)Cl (centres unmarked) [Chlorethoxyfos] | -2.1 | -89.198 | 60.4 µM | 65.2 ± 4.42 µM | -2.1 | 35.6 µM | 28.3 µM | 33.2 µM | – | 46.2 µM | 42.8 µM | – | 1.57 µM | -1.1 | -100.975 | 5.86 µM | 47 µM | 79.6 µM | IC50 (AChE in SH-SY5Y cells; read-out: IC50): 31.7 µM; IC50 [3, 15]: 37.3 µM; IC50 (recombinant human AChE [8]; IC50 (uM)): 28.3 µM
6 | CCOP(=S)(OCC)Oc1nc(Cl)c(Cl)cc1Cl [Chlorpyrifos, reference compound] | – | – | 48 µM | 95.7 ± 6.24 µM | -2.1 | 35.6 µM and 35.7 µM and 44.9 µM and 63.5 µM | 41.1 µM | 41.7 µM | 36.7 µM | 11.9 µM | – | – | 28 µM and 44.4 µM and 62.7 µM and 49.8 µM and 55.9 µM | -1.1 | – | 1.4 µM | 2.58 µM | 89.4 µM and 79.9 µM and 89.6 µM | IC50 (AChE in SH-SY5Y cells; read-out: IC50): 39.9 µM and 40 µM; IC50 ([5]; read-out: potency (IC50), Neural stem cell spheroid (24 h)): 1.21 µM
7 | CCOP(=S)(OCC)SC(CCl)N1C(=O)c2ccccc2C1=O (centres unmarked) [Dialifor] | -2.1 | -100.017 | 41.1 µM | 28.1 ± 3.23 µM | -2.1 | 31.7 µM | 14.6 µM | 25.7 µM | 15.7 µM | 15.2 µM | 9.74 µM | – | – | -1.1 | -102.338 | 2.69 µM | 20.1 µM | – | reversibility of AChE inhibition (result in words) (recombinant human AChE [6]): irreversibility
8 | CCOP(=O)(OCC)Oc1cc(C)nc(C(C)C)n1 [Diazoxon] | -1.1 | -95.835 | 1.12 ± 0.12 µM | 2.25 ± 0.26 µM | -1.1 | 0.143 µM and 0.179 µM and 0.201 µM | 0.26 ± 0.03 µM | 2.3 ± 0.96 µM | – | 0.24 ± 0.04 µM | 0.22 µM | – | 44.6 µM | -1.1 | -95.678 | 3.69 ± 0.24 µM | 0.39 ± 0.07 µM | – | IC50 [3, 15]: 0.5 µM
9 | Cc1cc(OC(=O)N(C)C)nn1C(=O)N(C)C [Dimetilan] | -1.1 | -84.168 | 16 ± 3.66 µM | 11.6 ± 1.49 µM | -1.1 | 7.1 µM | 6.89 ± 3.77 µM | 15.8 ± 16.9 µM | 7.03 µM | 4.45 ± 0.51 µM | 1.53 ± 0.26 µM | R | 49.8 µM (2×) and 31.4 µM and 19.8 µM (2×) and 55.9 µM and 12.5 µM and 5.59 µM and 14 µM | -2.1 | -61.098 | 9.97 ± 1.14 µM | 3.12 ± 1.72 µM | – | –
10 | CN1CCc2cc(Cl)c(O)cc2[C@H]2c3ccccc3CC[C@@H]21 [Ecopipam, reference compound] | -2.2 | -53.005 | 20.1 µM | 32.7 ± 9.64 µM | -2.2 | 27.5 µM and 34.7 µM | 15.8 µM | – | 17.7 µM | 17.5 µM | – | R | 21.7 µM (2×) and 9.68 µM and 19.3 µM and 15.3 µM (2×) and 17.2 µM | 4 | 0 | 27.3 µM | 3.16 µM | 34.7 µM | –
11 | CCOP(=O)(Sc1ccccc1)Sc1ccccc1 [Edifenphos] | -2.1 | -122.577 | 4.79 ± 0.31 µM | 3.03 ± 0.2 µM | -1.1 | 3.99 µM and 3.17 µM and 5.02 µM | 1.73 ± 0.43 µM | 4.79 ± 1.57 µM | 2.08 ± 0.37 µM | 1.31 ± 0.23 µM | 0.88 ± 0.1 µM | – | 28 µM and 62.7 µM and 31.4 µM (2×) and 25 µM and 49.8 µM and 35.2 µM | -3 | -113.282 | 7.31 ± 0.49 µM | 1.21 ± 0.17 µM | – | –
12 | CCOP(=S)(OCC)SCSP(=S)(OCC)OCC [Ethion] | -2.1 | -121.235 | 7.92 ± 0.91 µM | 58.7 ± 10.6 µM | -2.1 | 39.9 µM and 35.6 µM and 31.7 µM | 17 ± 1.1 µM | 31.9 ± 21.6 µM | 42.8 ± 2.79 µM | 7.03 ± 3.56 µM | 0.09 ± 0.02 µM | – | 49.8 µM (3×) and 55.9 µM (3×) and 88.5 µM and 62.7 µM | -1.1 | -94.606 | 11.1 µM | 0.48 ± 0.46 µM | – | –
13 | CCN(C(=O)c1cc(C)cc(OC[C@H](C)Nc2ccncc2)c1)C(C)C.Cc1ccc(S(=O)(=O)O)cc1 [GW473178E methyl benzene sulfonic acid] | -2.1 | -70.195 | 10.6 µM | 19.7 ± 2.26 µM | -1.1 | 12.5 µM and 11.1 µM | 23.3 µM | 9.63 µM | 24 µM | 24.8 µM | – | R | 11 µM (2×) and 19.6 µM and 9.82 µM (3×) and 8.76 µM and 12.4 µM | -2.2 | -52.62 | 18.9 µM | 31.2 µM | 22.2 µM | potency (IC50), Neural stem cell spheroid (24 h) [5]: Inactive; IC50 (recombinant human AChE [8]; IC50 (uM)): 49.7 µM
14 | Cc1c(Cl)c(=O)oc2cc(OP(=O)(OCCCl)OCCCl)ccc12 [Haloxon] | -1.1 | -92.736 | 0.63 ± 0.11 µM | 1.35 ± 0.09 µM | -1.1 | 3.89 µM and 4.36 µM and 3.09 µM | 1.51 ± 0.09 µM | 0.88 ± 0.64 µM | 1.12 ± 0.13 µM | 0.39 µM | 0.2 ± 0.17 µM | – | 1.4 µM and 1.57 µM (2×) and 1.11 µM (2×) and 1.25 µM and 885 nM and 993 nM | -1.1 | -94.886 | 2.81 ± 0.32 µM | 0.18 ± 0.05 µM | – | –
15 | O=C(Nc1cccc(C2=NCCN2)c1)Nc1cccc(C2=NCCN2)c1 [Imidocarb dipropionate, reference compound] | -2.1 | -76.607 | 18.5 ± 10.1 µM | 25.7 ± 5.81 µM | -1.1 | 3.79 µM and 4.25 µM | 5.07 ± 0.64 µM | 6.56 ± 6.21 µM | 7.41 ± 0.48 µM | 19.3 µM | 19.4 ± 2.22 µM | R | 15.3 µM (2×) and 17.2 µM and 19.3 µM and 10.9 µM and 13.7 µM and 21.7 µM and 12.2 µM | 4 | 0 | 27.6 ± 5.16 µM | 19.3 µM | 10.7 µM | –
